Source: US9006246B2, “Tetrahydrocarboline derivative” (Ono Pharmaceutical Co., Ltd., priority 2010, dated 2015)
Where a name gives a salt, the structure may show the parent alone.

How the values were obtained:
human ENPP2 = human ENPP2 (Homo sapiens (Human), UniProt Q13822); experiment: Measurement of human ENPP2 inhibitory activity; type: biochemical; conditions: 16:0-LPC substrate, 37° C., 24 hours; for inhibition at 1 µM: 1 μM test compound, read-out: ENPP2 inhibition rate(%) (1 μM)
Procedure: 10 μL of a test compound solution (10% dimethyl sulfoxide) at each concentration and 40 μL of a 5 μg/mL human ENPP2 solution (buffer A: 100 mmol/L Tris-HCl (pH 9.0), 500 mmol/L NaCl, 5 mmol/L MgCl2, 0.05% Triton X-100) were mixed, 50 μL of a 2 mmol/L 16:0-lysophosphatidylcholine (LPC) solution (buffer A) was further added to react at 37° C. for 24 hours. Subsequently, to 10 μL of the reaction solution was added 90 μL of a measurement buffer (0.5 mmol/L aminoantipyrine, 0.3 mmol/L N-ethyl-N-(2-hydroxy-3-sulfopropyl)-3-methylaniline, 1 U/mL peroxidase, 3 U/mL choline oxidase, 100 mmol/L Tris-HCl (pH 8.5), 5 mmol/L CaCl2) to react at 37° C. for 20 minutes, and spectrophotometric determination was performed at 555 nm.
Using a standard curve, a choline production amount (enzyme activity) in each test compound was calculated, and the inhibitory activity rate of each test compound was calculated, wherein the enzyme activity in a positive control to which a test compound is not added, was a 0% inhibition rate, and the enzyme activity in a negative control to which a test compound and human ENPP2 are not added, were 100% inhibition. Further, concerning the present compounds shown in Table 3, an IC50 value was calculated from inhibitory activity rate at each concentration.

SD male rat = experiment: Measurement of urethra internal pressure in rat under anesthesia; type: in vivo; conditions: rat under urethane anesthesia
Source text: A SD male rat (Crl: CD(SD), Charles River Laboratories Japan, Inc., 7-10 weeks old) was anesthetized by subcutaneous administration of 1.5 g/kg urethane at a back of a neck. After neck median incision, a jugular vein catheter for intravenous administration was inserted. A lower abdominal part was median incised, and a urethra was ligated at around pubis. A urethral catheter for measuring a urethra internal pressure, equipped with a collar at a tip and filled with a physiological saline was inserted into a urethra through an incised bladder top, and ligation-fixed at a bladder neck part. The urethral catheter was connected to a pressure transducer (manufactured by Nihon Kohden Corporation), and a urethra internal pressure was measured. […] A urethra internal pressure reduction rate (%) was calculated based on a urethra internal pressure after compound administration, wherein a value obtained by subtracting a postmortem baseline value (minimum value of urethra internal pressure for 10 minutes after administration of somnopentyl) from a urethra internal pressure value before compound administration (0 minute) was 100%.

SMILES	IC50 (human ENPP2) [nM]	inhibition at 1 µM (human ENPP2) [%]	also measured
O=C(O)CCCCC(=O)N1CCc2c(n(CCCc3ccccc3)c3ccccc23)C1 [Example 3, 6-oxo-6-[9-(3-phenylpropyl)-1,3,4,9-tetrahydro-2H-beta-carbolin-2-yl]hexanoic acid]	34		urethra internal pressure (SD male rat; intravenous 0.1, 0.3, 1.0 mg/kg, FIG. 1): significantly reduced a urethra internal pressure
O=C(C[C@H]1CC[C@H](C(=O)O)CC1)N1CCc2c(n(Cc3ccc(Cl)cc3F)c3ncccc23)C1 [Example 31(24), trans-4-{2-[9-(4-chloro-2-fluorobenzyl)-5,6,8,9-tetrahydro-7H-pyrido[4′,3′:4,5]pyrrolo[2,3-b]pyridin-7-yl]-2-oxoethyl}cyclohexanecarboxylic acid]	5		urethra internal pressure (SD male rat; intravenous 0.03, 0.1, 0.3 mg/kg, FIG. 2): significantly reduced a urethra internal pressure
O=C(CC12CCC(C(=O)O)(CC1)C2)N1CCc2c(n(Cc3ccc(F)cc3)c3ncccc23)C1 [Example 31(188), 4-{2-[9-(4-fluorobenzyl)-5,6,8,9-tetrahydro-7H-pyrido[4′,3′:4,5]pyrrolo[2,3-b]pyridin-7-yl]-2-oxoethyl}bicyclo[2.2.1]heptane-1-carboxylic acid]		98.8	
O=C(CC12CCC(C(=O)O)(CC1)C2)N1CCc2c(n(Cc3ccc(Cl)cc3)c3ncccc23)C1 [Example 31(189), 4-{2-[9-(4-chlorobenzyl)-5,6,8,9-tetrahydro-7H-pyrido[4′,3′:4,5]pyrrolo[2,3-b]pyridin-7-yl]-2-oxoethyl}bicyclo[2.2.1]heptane-1-carboxylic acid]		99.3	
O=C(O)C1CCCN(CC(=O)N2CCc3c(n(Cc4cccc(F)c4)c4ncccc34)C2)C1 (stereo not shown) [Example 35(2), 1-{2-[9-(3-fluorobenzyl)-5,6,8,9-tetrahydro-7H-pyrido[4′,3′:4,5]pyrrolo[2,3-b]pyridin-7-yl]-2-oxoethyl}-3-piperidinecarboxylic acid]	110		
C[C@@H]1CN(CC(=O)N2CCc3c(n(Cc4ccc(Cl)s4)c4ccccc34)C2)C[C@H](C)N1CC(=O)O [Example 35(122), rel-[(2R,6S)-4-(2-{9-[(5-chloro-2-thienyl)methyl]-1,3,4,9-tetrahydro-2H-beta-carbolin-2-yl}-2-oxoethyl)-2,6-dimethyl-1-piperazinyl]acetic acid dihydrochloride]	35		
C[C@]1(C(=O)O)CC[C@H](CC(=O)N2CCc3c(n(Cc4ccc(F)cc4)c4ncccc34)C2)CC1 [Example 48(8), trans-4-{2-[9-(4-fluorobenzyl)-5,6,8,9-tetrahydro-7H-pyrido[4′,3′:4,5]pyrrolo[2,3-b]pyridin-7-yl]-2-oxoethyl}-1-methylcyclohexanecarboxylic acid]	26		
C[C@]1(C(=O)O)CC[C@H](CC(=O)N2CCc3c(n(Cc4ccc(Cl)cc4)c4ncccc34)C2)CC1 [Example 48(9), trans-4-{2-[9-(4-chlorobenzyl)-5,6,8,9-tetrahydro-7H-pyrido[4′,3′:4,5]pyrrolo[2,3-b]pyridin-7-yl]-2-oxoethyl}-1-methylcyclohexanecarboxylic acid]	25		
COc1cc(CC(=O)N2CCc3c(n(Cc4cc(F)cc(F)c4)c4ncccc34)C2)ccc1C(=O)O [Example 51(23), 4-{2-[9-(3,5-difluorobenzyl)-5,6,8,9-tetrahydro-7H-pyrido[4′,3′:4,5]pyrrolo[2,3-b]pyridin-7-yl]-2-oxoethyl}-2-methoxybenzoic acid]		96.2	
COc1cc(CC(=O)N2CCc3c(n(Cc4cc(F)c(F)cc4F)c4ncccc34)C2)ccc1C(=O)O [Example 51(24), 2-methoxy-4-{2-oxo-2-[9-(2,4,5-trifluorobenzyl)-5,6,8,9-tetrahydro-7H-pyrido[4′,3′:4,5]pyrrolo[2,3-b]pyridin-7-yl]ethyl}benzoic acid]		97.5	
Cc1cc(CC(=O)N2CCc3c(n(Cc4csc(Cl)c4)c4ncccc34)C2)ccc1C(=O)O [Example 51(48), 4-(2-{9-[(5-chloro-3-thienyl)methyl]-5,6,8,9-tetrahydro-7H-pyrido[4′,3′:4,5]pyrrolo[2,3-b]pyridin-7-yl}-2-oxoethyl)-2-methylbenzoic acid]	7.8		
